In the NIST ThermoML archive (doi:10.1016/j.jct.2011.10.023):

Conditions: Liquid, Vibrating tube method

CCCCCCO [hexan-1-ol]
mass density [kg/m3]
Conditions	278.15 K	288.15 K	298.15 K	308.15 K	318.15 K	328.15 K	338.15 K	348.15 K	358.15 K
100 kPa	828.9	822.1	814.9	807.8	800.5	793	785.4	777.6	769.4
1000 kPa	829.5	822.7	815.6	808.4	801.2	793.7	786.2	778.4	770
5000 kPa	832	825.3	818.4	811.4	804.3	797	789.6	782	774.2
10000 kPa	835	828.5	821.7	814.8	807.9	800.8	793.6	786.2	778.6
15000 kPa	838	831.6	824.9	818.2	811.4	804.4	797.4	790.2	782.8
20000 kPa	840.8	834.6	828	821.4	814.7	807.9	801	794.1	786.9
25000 kPa	843.6	837.4	830.9	824.5	817.9	811.2	804.5	797.6	790.7
30000 kPa	846.3	840.2	833.8	827.5	821	814.4	807.9	801.2	794.3
35000 kPa	848.9	842.9	836.6	830.3	824	817.6	811.1	804.6	797.9
40000 kPa	851.4	845.5	839.4	833.2	826.9	820.6	814.2	807.8	801.3
45000 kPa	853.9	848	842	835.9	829.7	823.5	817.3	811	804.6
50000 kPa	856.3	850.5	844.6	838.5	832.4	826.4	820.2	814	807.7
55000 kPa	858.7	853	847.1	841.1	835.1	829.1	823.1	817	810.8
60000 kPa	860.9	855.4	849.6	843.5	837.7	831.6	825.7	819.7	813.5

CCO [ethanol]
mass density [kg/m3]
Conditions	278.15 K	288.15 K	298.15 K	308.15 K	318.15 K	328.15 K	338.15 K	348.15 K	358.15 K
100 kPa	801.9	793.4	784.8	776.1	767.4	758.4	749.1	739.5	729.5
1000 kPa	802.7	794.2	785.6	777	768.3	759.4	750.2	740.7	730.7
5000 kPa	805.9	797.6	789.3	780.9	772.4	763.7	754.8	745.6	736
10000 kPa	809.9	801.8	793.6	785.4	777.2	768.8	760.1	751.3	742.1
15000 kPa	813.6	805.8	797.7	789.7	781.7	773.6	765.2	756.6	747.7
20000 kPa	817.2	809.5	801.7	793.9	786	778.1	769.9	761.6	753
25000 kPa	820.6	813.1	805.3	797.8	790.1	782.4	774.4	766.4	758
30000 kPa	824	816.6	809	801.5	794	786.5	778.7	770.8	762.8
35000 kPa	827.2	819.9	812.5	805.2	797.8	790.4	782.8	775.1	767.2
40000 kPa	830.3	823.1	815.9	808.7	801.4	794.2	786.7	779.2	771.5
45000 kPa	833.3	826.3	819.2	812	804.9	797.8	790.5	783.1	775.6
50000 kPa	836.3	829.3	822.3	815.3	808.3	801.3	794.1	786.9	779.5
55000 kPa	839.1	832.3	825.4	818.5	811.6	804.7	797.7	790.5	783.3
60000 kPa	841.8	835	828.1	821.4	814.6	807.8	800.8	793.8	786.7

CCCCO [butan-1-ol]
mass density [kg/m3]
Conditions	278.15 K	288.15 K	298.15 K	308.15 K	318.15 K	328.15 K	338.15 K	348.15 K	358.15 K
100 kPa	820.9	813.5	805.8	798	790.3	782.3	774	765.6	756.6
1000 kPa	821.6	814.1	806.6	798.8	791.1	783.1	774.9	766.3	757.7
5000 kPa	824.4	817	809.6	802	794.5	786.7	778.7	770.5	761.7
10000 kPa	827.7	820.5	813.3	805.9	798.5	790.9	783.2	775.3	767
15000 kPa	830.9	823.9	816.8	809.5	802.4	795	787.4	779.8	771.7
20000 kPa	834	827.2	820.2	813	805.6	798.8	791.4	784	776.2
25000 kPa	837	830.3	823.5	816.4	809.5	802.4	795.3	788	780.4
30000 kPa	839.9	833.2	826.6	819.7	812.9	806	799	791.8	784.4
35000 kPa	842.7	836.2	829.6	822.8	816.1	809.4	802.5	795.6	788.3
40000 kPa	845.4	839	832.6	825.9	819.3	812.7	805.9	799.1	792
45000 kPa	848.1	841.7	835.4	828.8	822.4	815.8	809.2	802.5	795.5
50000 kPa	850.7	844.4	838.2	831.7	825.3	818.9	812.4	805.8	799
55000 kPa	853.2	846.8	840.9	834.5	828.2	821.8	815.4	809	802.3
60000 kPa	855.6	849.4	843.3	837	830.9	824.6	818.4	811.9	805.3
